Several values for one entry are separate records, joined by “and”; a condition that tells them apart may be missing. Equal values may be shown once.
Columns and labels:
[1] = test system: FA19-rpoH-lacZ; test: Gonococcal growth in liquid culture (GC broth) with hormones (Fig S7)
[2] = test system: FA19 mtrD::kan (KH14); test: MIC of steroidal hormones on GC agar, FA19 mtrD::kan (KH14); type: cell-based, Neisseria gonorrhoeae
Method: (§1) To determine the minimal inhibitory concentrations (MICs) by the steroidal hormones and their effect on antimicrobial susceptibility, 5 x 10^5 CFU and 1:5 serial dilutions of gonococcal strains were spotted on GC agar plates containing different concentrations of antibiotics and/or hormones as indicated. Antimicrobial susceptibility was assessed after 24 h incubation.
Table S1. Steroidal hormones are substrates of the MtrCDE efflux pump
Progesterone Testosterone
*Minimal inhibition concentration is defined by the lowest concentration at which visible growth is […]

[3] = test system: mutant strain JF1 (ΔmtrR); test: Antimicrobial susceptibility spot assay with hormone plus antibiotic, JF1 (ΔmtrR); type: cell-based, Neisseria gonorrhoeae; conditions: derivative lacking MtrR (JF1), azithromycin
Method: Fig. 5 Effect of steroidal hormones on gonococcal antimicrobial susceptibility.
as §1

CC(=O)[C@H]1CC[C@H]2[C@@H]3CCC4=CC(=O)CC[C@]4(C)[C@H]3CC[C@]12C [Progesterone, progesterone]
growth curve reading after BLANKING ([1]; 1.18 hr, 1 µM): 0.020 | growth curve reading, raw replicates ([1]; 1.18 hr, 1 µM): 0.051 and 0.054 | growth curve reading after BLANKING ([1]; 1.18 hr, 10 µM): 0.019 | growth curve reading, raw replicates ([1]; 1.18 hr, 10 µM): 0.051 and 0.052 | growth curve reading after BLANKING ([1]; 1.18 hr, 25 µM): 0.018 | growth curve reading, raw replicates ([1]; 1.18 hr, 25 µM): 0.051 and 0.052 | growth curve reading after BLANKING ([1]; 1.18 hr, 50 µM): 0.017 | growth curve reading, raw replicates ([1]; 1.18 hr, 50 µM): 0.049 and 0.051 | growth curve reading after BLANKING ([1]; 2 hr, 0.1 µM): 0.029 | growth curve reading, raw replicates ([1]; 2 hr, 0.1 µM): 0.062 | growth curve reading after BLANKING ([1]; 2 hr, 1 µM): 0.031 | growth curve reading, raw replicates ([1]; 2 hr, 1 µM): 0.063 and 0.066 | growth curve reading after BLANKING ([1]; 2 hr, 10 µM): 0.029 | growth curve reading, raw replicates ([1]; 2 hr, 10 µM): 0.062 | growth curve reading after BLANKING ([1]; 2 hr, 25 µM): 0.030 | growth curve reading, raw replicates ([1]; 2 hr, 25 µM): 0.062 and 0.065 | growth curve reading after BLANKING ([1]; 2 hr, 50 µM): 0.026 | growth curve reading, raw replicates ([1]; 2 hr, 50 µM): 0.060 and 0.059 | growth curve reading after BLANKING ([1]; 3 hr, 0.1 µM): 0.038 | growth curve reading, raw replicates ([1]; 3 hr, 0.1 µM): 0.072 and 0.070 | growth curve reading after BLANKING ([1]; 3 hr, 1 µM): 0.046 | growth curve reading, raw replicates ([1]; 3 hr, 1 µM): 0.080 and 0.077 | growth curve reading after BLANKING ([1]; 3 hr, 10 µM): 0.037 | growth curve reading, raw replicates ([1]; 3 hr, 10 µM): 0.070 | growth curve reading after BLANKING ([1]; 3 hr, 25 µM): 0.046 | growth curve reading, raw replicates ([1]; 3 hr, 25 µM): 0.079 | growth curve reading after BLANKING ([1]; 3 hr, 50 µM): 0.033 | growth curve reading, raw replicates ([1]; 3 hr, 50 µM): 0.067 and 0.065 | growth curve reading after BLANKING ([1]; 4 hr, 0.1 µM): 0.053 | growth curve reading, raw replicates ([1]; 4 hr, 0.1 µM): 0.086 | growth curve reading after BLANKING ([1]; 4 hr, 1 µM): 0.062 | growth curve reading, raw replicates ([1]; 4 hr, 1 µM): 0.093 and 0.096 | growth curve reading after BLANKING ([1]; 4 hr, 10 µM): 0.050 | growth curve reading, raw replicates ([1]; 4 hr, 10 µM): 0.082 and 0.084 | growth curve reading after BLANKING ([1]; 4 hr, 25 µM): 0.062 | growth curve reading, raw replicates ([1]; 4 hr, 25 µM): 0.096 and 0.093 | growth curve reading after BLANKING ([1]; 4 hr, 50 µM): 0.044 | growth curve reading, raw replicates ([1]; 4 hr, 50 µM): 0.076 and 0.078 | growth curve reading after BLANKING ([1]; 5 hr, 0.1 µM): 0.071 | growth curve reading, raw replicates ([1]; 5 hr, 0.1 µM): 0.103 and 0.104 | growth curve reading after BLANKING ([1]; 5 hr, 1 µM): 0.079 | growth curve reading, raw replicates ([1]; 5 hr, 1 µM): 0.110 and 0.113 | growth curve reading after BLANKING ([1]; 5 hr, 10 µM): 0.065 | growth curve reading, raw replicates ([1]; 5 hr, 10 µM): 0.096 and 0.099 | growth curve reading after BLANKING ([1]; 5 hr, 25 µM): 0.078 | growth curve reading, raw replicates ([1]; 5 hr, 25 µM): 0.113 and 0.110 | growth curve reading after BLANKING ([1]; 5 hr, 50 µM): 0.056 | growth curve reading, raw replicates ([1]; 5 hr, 50 µM): 0.087 and 0.090 | growth curve reading after BLANKING ([1]; 5.95 hr, 0.1 µM): 0.089 | growth curve reading, raw replicates ([1]; 5.95 hr, 0.1 µM): 0.121 and 0.123 | growth curve reading after BLANKING ([1]; 5.95 hr, 1 µM): 0.097 | growth curve reading, raw replicates ([1]; 5.95 hr, 1 µM): 0.130 | growth curve reading after BLANKING ([1]; 5.95 hr, 10 µM): 0.080 | growth curve reading, raw replicates ([1]; 5.95 hr, 10 µM): 0.112 and 0.115 | growth curve reading after BLANKING ([1]; 5.95 hr, 25 µM): 0.095 | growth curve reading, raw replicates ([1]; 5.95 hr, 25 µM): 0.130 and 0.126 | growth curve reading after BLANKING ([1]; 5.95 hr, 50 µM): 0.070 | growth curve reading, raw replicates ([1]; 5.95 hr, 50 µM): 0.103 and 0.104 | growth curve reading after BLANKING ([1]; 6.82 hr, 0.1 µM): 0.100 | growth curve reading, raw replicates ([1]; 6.82 hr, 0.1 µM): 0.130 | growth curve reading after BLANKING ([1]; 6.82 hr, 1 µM): 0.112 | growth curve reading after BLANKING ([1]; 6.82 hr, 10 µM): 0.091 | growth curve reading, raw replicates ([1]; 6.82 hr, 10 µM): 0.126 and 0.123 | growth curve reading after BLANKING ([1]; 6.82 hr, 25 µM): 0.109 | growth curve reading after BLANKING ([1]; 6.82 hr, 50 µM): 0.083 | growth curve reading, raw replicates ([1]; 6.82 hr, 50 µM): 0.114 and 0.119 | MIC ([2]; Neisseria gonorrhoeae): 20 µg/mL and 64 µM | effect of mtrD deletion on MIC ([2]; vs FA19): lowered | change in antibiotic resistance in presence of sub-lethal hormone [3]: did not show change

From PMC10850145, “Hormonal steroids induce multidrug resistance and stress response genes in Neisseria gonorrhoeae by binding to MtrR” (Nature Communications, 2024)
